According to patent US12319679B2, “Morpholinyl, piperazinyl, oxazepanyl and diazepanyl O-glycoprotein-2-acetamido-2-deoxy-3-d-glucopyranosidase inhibitors” (BIOGEN MA INC., priority 2018, dated 2025):
Counter-ions that a name gives are not always drawn.

target: T1, Recombinant full length human OGA enzyme (Homo sapiens, UniProt O60502); experiment: OGA Enzyme Inhibition Biochemical Assay; conditions: 1 nM OGA, 100 μM 4-MUGlcNAc (Km), pH 6.4, 90 minutes at room temperature; 10-point dose-response starting from 20 μM
T1 construct: Recombinant full length human OGA enzyme was purchased from Origene; purchased Origene
T1 sequence (O60502 1-916): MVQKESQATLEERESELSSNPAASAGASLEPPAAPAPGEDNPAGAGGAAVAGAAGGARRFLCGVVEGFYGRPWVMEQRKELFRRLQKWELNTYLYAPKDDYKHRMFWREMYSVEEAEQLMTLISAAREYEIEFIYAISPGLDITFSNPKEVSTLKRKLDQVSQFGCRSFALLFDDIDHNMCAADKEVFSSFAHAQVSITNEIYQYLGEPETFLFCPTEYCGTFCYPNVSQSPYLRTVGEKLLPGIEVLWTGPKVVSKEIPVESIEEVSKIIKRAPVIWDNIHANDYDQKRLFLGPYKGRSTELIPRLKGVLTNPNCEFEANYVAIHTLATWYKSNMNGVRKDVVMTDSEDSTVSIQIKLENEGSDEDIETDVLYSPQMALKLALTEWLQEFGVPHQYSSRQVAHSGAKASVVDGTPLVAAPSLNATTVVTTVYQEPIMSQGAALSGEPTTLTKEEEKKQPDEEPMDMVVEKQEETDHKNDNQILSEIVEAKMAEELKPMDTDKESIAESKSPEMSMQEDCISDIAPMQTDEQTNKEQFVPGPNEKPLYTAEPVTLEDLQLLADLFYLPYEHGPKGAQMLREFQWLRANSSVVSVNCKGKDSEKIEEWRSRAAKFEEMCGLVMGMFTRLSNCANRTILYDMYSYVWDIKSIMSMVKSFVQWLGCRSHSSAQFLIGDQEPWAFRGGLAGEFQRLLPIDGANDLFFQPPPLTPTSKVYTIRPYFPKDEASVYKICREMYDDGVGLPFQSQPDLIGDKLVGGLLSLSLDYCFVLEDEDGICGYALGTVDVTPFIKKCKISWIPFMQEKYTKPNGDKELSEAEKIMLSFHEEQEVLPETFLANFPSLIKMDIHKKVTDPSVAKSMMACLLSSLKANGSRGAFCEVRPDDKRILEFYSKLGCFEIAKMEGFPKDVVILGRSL
In short: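 Full-length human OGA (1 nM) with 100 μM 4-MUGlcNAc (Km) in McIlvaine buffer pH 6.4, 0.01% BSA, 90 min at room temperature, then quenched with glycine pH 10. Fluorescence at Ex 355/Em 460 nm; 10-point 4-fold series from 20 μM, four-parameter variable-slope fit.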

`CC(=O)Nc1ncc(CN2CCCNC(Cc3ccnc(C)c3)C2)s1` (stereo not shown) [Example 2-27, N-(5-((3-((2-methylpyridin-4-yl)methyl)-1,4-diazepan-1-yl)methyl)thiazol-2-yl)acetamide] and `CC(=O)Nc1ncc(CN2CCCNC(Cc3cc(C)nc(C)c3)C2)s1` (stereo not shown) [Example 2-28, N-(5-((3-((2,6-dimethylpyridin-4-yl)methyl)-1,4-diazepan-1-yl)methyl)thiazol-2-yl)acetamide] are within 1.5-fold of each other in IC50: 9.9 µM for the first, 12 µM for the second.

First: CC(=O)Nc1ncc(CN2CCCN(C(C)=O)C(Cc3cc(C)nc(C)c3)C2)s1 (stereo not shown) [Example 2-29, N-(5-((4-acetyl-3-((2,6-dimethylpyridin-4-yl)methyl)-1,4-diazepan-1-yl)methyl)thiazol-2-yl)acetamide]
Second: CC(=O)Nc1ncc(CN2CCN(C)[C@H](Cc3cc(C)nc(C)c3)C2)s1 [Example 4-3, (R)—N-(5-((3-((2,6-dimethylpyridin-4-yl)methyl)-4-methylpiperazin-1-yl)methyl)thiazol-2-yl)acetamide]
The IC50 of the first is higher: > 20 µM for the first, 1.6 µM for the second. The second is the more potent here.

`CC(=O)Nc1ncc(CN2C[C@@H](COc3cc(C)nc(C)c3)NC[C@@H]2C)s1` [Example 3-1, N-(5-(((2S,5S)-5-(((2,6-dimethylpyridin-4-yl)oxy)methyl)-2-methylpiperazin-1-yl)methyl)thiazol-2-yl)acetamide] and `CC(=O)Nc1ncc(CN2C[C@@H](COc3cc(C)nc(C)c3)OC[C@@H]2C)s1` [Example 3-4, N-(5-(((2S,5S)-2-(((2,6-dimethylpyridin-4-yl)oxy)methyl)-5 methylmorpholino)methyl)thiazol-2-yl)acetamide] are within 1.5-fold of each other in IC50: 0.021 µM for the first, 0.017 µM for the second.

First: CC(=O)Nc1ncc(CN2C[C@@H](COc3cc(C)nc(C)c3)N(C)C[C@@H]2C)s1 [Example 3-2, N-(5-(((2S,5S)-5-(((2,6-dimethylpyridin-4-yl)oxy)methyl)-2,4-dimethylpiperazin-1-yl)methyl)thiazol-2-yl)acetamide]
Second: CC(=O)Nc1ncc(CN2C[C@@H](COc3cc(C)nc(C)c3)N(C(C)=O)C[C@@H]2C)s1 [Example 3-3]
The IC50 of the first is 290-fold lower: 0.038 µM for the first, 11 µM for the second. The first is the more potent here.

`CC(=O)Nc1ncc(CN2CCN(C)CC(COc3ncc(F)cn3)C2)s1` (stereo not shown) [Example 3-5, N-(5-((6-(((5-fluoropyrimidin-2-yl)oxy)methyl)-4-methyl-1,4-diazepan-1-yl)methyl)thiazol-2-yl)acetamide] and `CC(=O)Nc1ncc(CN2CCN(C)[C@H](Cc3ccnc(C)c3)C2)s1` [Example 4-9, (R)—N-(5-((4-methyl-3-((2-methylpyridin-4-yl)methyl)piperazin-1-yl)methyl)thiazol-2-yl)acetamide] cannot be ordered by IC50: > 20 µM for the first, > 20 µM for the second.

Compared with `CC(=O)Nc1ncc(CN2CCN[C@H](Cc3cc(C)nc(C)c3)C2)s1` [Example 4-1, (R)—N-(5-((3-((2,6-dimethylpyridin-4-yl)methyl)piperazin-1-yl)methyl)thiazol-2-yl)acetamide hydrochloride], `CC(=O)Nc1ncc(CN2CCN[C@@H](Cc3cc(C)nc(C)c3)C2)s1` [Example 4-2, (S)—N-(5-((3-((2,6-dimethylpyridin-4-yl)methyl)piperazin-1-yl)methyl)thiazol-2-yl)acetamide hydrochloride] is 20-fold lower in IC50: 7 µM for the first, 0.35 µM for the second. The second is the more potent here.

Going from `CC(=O)Nc1ncc(CN2CCN(C)[C@@H](Cc3cc(C)nc(C)c3)C2)s1` [Example 4-4, (S)—N-(5-((3-((2,6-dimethylpyridin-4-yl)methyl)-4-methylpiperazin-1-yl)methyl)thiazol-2-yl)acetamide] to `CC(=O)Nc1ncc(CN2CCN(C)[C@@H](Cc3ccnc(C)c3)C2)s1` [Example 4-10, (S)—N-(5-((4-methyl-3-((2-methylpyridin-4-yl)methyl)piperazin-1-yl)methyl)thiazol-2-yl)acetamide], the IC50 rises from 0.2 µM to 0.66 µM (3.3-fold). The first is the more potent here.

Compared with `CC(=O)Nc1ncc(CN2CCN(C)[C@H](Cc3ccc(C)nc3)C2)s1` [Example 4-15, (R)—N-(5-((4-methyl-3-((6-methylpyridin-3-yl)methyl)piperazin-1-yl)methyl)thiazol-2-yl)acetamide], `CC(=O)Nc1ncc(CN2CCN(C)[C@@H](Cc3ccc(C)nc3)C2)s1` [Example 4-16, (S)—N-(5-((4-methyl-3-((6-methylpyridin-3-yl)methyl)piperazin-1-yl)methyl)thiazol-2-yl)acetamide] is lower in IC50: > 20 µM for the first, 2 µM for the second. The second is the more potent here.
